Source: PubChem BioAssay AID2060496 (Molecular Pharmacology Branch, DTP, NCI, 2025)
Several values for one entry are separate records, joined by “and”; a condition that tells them apart may be missing. Identical values can stand only once.

Tested on: 276233-004-R-J1-PDC complex spheroid viability
Test: Anticancer human tumor 276233-004-R-J1-PDC patient-derived colon adenocarcinoma cell line growth inhibition [GQUAD]
Conditions: for viability, T/C: stronger effect = lower value; active = viability on the fitted dose curve at most 10% of control; inactive = the rest
Text: DNA G-quadruplex Stabilizer Agents in Combinations in Complex Spheroids
A high-throughput screen of multi-cell type tumor spheroids was designed to identify active combinations of DNA G-quadruplex stabilizer agents and targeted small molecules. Complex spheroids include a stromal component modeled by human endothelial cells (HUVEC) and fibroblasts modeled by human mesenchymal stem cells (MSCs). The concentration ranges selected for each drug and investigational agent were based upon clinically achievable concentrations if the clinical Cmax of the agent was known.
Compounds. The drugs and investigational agents: pidnarulex (CX-5461; NSC782164), APTO-253 (NSC789042), BRACO-19 (NSC847499), peposertib (NSC802822), ceralasertib (NSC780249), elimusertib (NSC800525), camonsertib (NSC841442), AZD-1390 (NSC803789), olaparib (NSC753686), talazoparib (NSC767125), ART-558 (NSC835418), sotorasib (NSC818433), MRTX-1133 (NSC836407), SN-38 (NSC673596), topotecan (NSC609699), etoposide (NSC141540), doxorubicin (NSC123127), gemcitabine (NSC613327), 5-fluorouracil (NSC19893), paclitaxel (NSC125973), vemurafenib (NSC761431), panobinostat (NSC761190), R-306465 (JNJ-16241199; NSC773264), adavosertib (NSC754352), TP-3654 (NSC805149), carboplatin (NSC241240), KSQ-4279 (NSC840948), and staurosporine (NSC755774) were obtained from the National Cancer Institute (NCI) Developmental Therapeutics Program Chemical Repository (34). The FDA-approved anticancer drug set is available from the NCI Developmental Therapeutics Program. […] The stock solutions were prepared in dimethyl sulfoxide (DMSO, Sigma-Aldrich, St. Louis, MO, cat. D2650) at 800-fold the tested concentration and stored at -70 degrees C prior to their use. All drugs and investigational agents were tested over a range starting from a high concentration at or near the clinical Cmax and decreasing in half-log increments. If the clinical Cmax for an agent had not been determined, the highest concentration tested was 10 microM.
2.3 Cell Culture. All cells were maintained in an incubator at 37 degrees C and 5% CO2 with 95% humidity. The PDC lines were cultured according to standard operating procedures established by the NCI PDMR. All PDCs were thawed and cultured in Matrigel-coated flasks prepared with a working solution of 1X Ham's F-12 nutrient mix, without supplementation (Invitrogen, cat. 11765054), 100 U/mL penicillin-streptomycin (Invitrogen, cat. 15140122), and 2.5% Matrigel (Corning Inc., cat. 354248) for the first three passages. The 857933-349-R-J2-PDC line was cultured in 6C/Colon 1B media, which includes advanced DMEM/F-12 (Thermo Fisher Scientific, cat. 12634028), 10 mM HEPES (Thermo Fisher Scientific, cat. 15630080), 1X GlutaMAX supplement (Thermo Fisher Scientific, cat. 35050061), 0.1 mg/mL primocin (InvivoGen, cat. ant-pm-2), 10% defined fetal bovine serum, heat inactivated (HyClone Laboratories Inc., cat. SH30070.03HI), 50% L-WRN conditioned media (ATCC, cat. CRL-3276), 1.25 mM N-Acetyl-L-cysteine (Sigma-Aldrich, cat. A9165), 10 mM nicotinamide (Sigma-Aldrich, cat. N0636), 1X B-27 supplement (Thermo Fisher Scientific, cat. 17504044), 1X N-2 supplement (Thermo Fisher Scientific, cat. 17502048), 10 microM Y-27632 dihydrochloride (Tocris Bioscience, cat. 1254), and 50 ng/mL human EGF recombinant protein (Thermo Fisher Scientific, cat. PHG0311). The 485176-168-R4-J1-PDC line was cultured in Panc media, which includes all 6C/Colon 1B media components plus 100 ng/mL human FGF-10 (Thermo Fisher Scientific, cat. 100-26), 500 nM SB-431542 (Selleckchem, cat. S1067), and gastrin (Tocris, cat. 3006).
[…]
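Also: spheroids exposed to drugs for seven days.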

Cn1ncnc1[C@H]1c2n[nH]c(=O)c3cc(F)cc(c23)N[C@@H]1c1ccc(F)cc1
inactive: viability, T/C (compound 0.000999 µM) 108% and 94.2% and 85.9% | viability, T/C (compound 0.00316 µM) 84.1% and 111% and 82.8% | viability, T/C (compound 0.00999 µM) 97.9% and 83.5% and 81.7% | viability, T/C (compound 0.0316 µM) 80% and 83.1% and 87.4% | viability, T/C (compound 0.0999 µM) 108% and 84.9% and 87.8% | viability, T/C (compound 0.316 µM) 102% and 89.6% and 80.9%
> 0.316 µM: IC50 (curve of compound)

CN(C)c1ccc(Nc2c3ccc(NC(=O)CCN4CCCC4)cc3nc3cc(NC(=O)CCN4CCCC4)ccc23)cc1
inactive: viability, T/C (compound 0.316 µM) 65% [middle of 12 runs] | viability, T/C (compound 1 µM) 64.4% [middle of 12 runs] | viability, T/C (compound 3.16 µM) 61.7% [middle of 12 runs] | viability, T/C (compound 10 µM) 49.8% [middle of 12 runs]
> 10 µM and 4.02 µM and 5.57 µM: IC50 (compound alone, run of 02/26/2024)

COc1ccc([C@@H](O)c2cc(-c3ncnc4cc(N5CCOCC5)ccc34)c(F)cc2Cl)nn1
inactive: viability, T/C (compound 0.0316 µM) 91.6% and 98.8% and 86% | viability, T/C (compound 0.1 µM) 81% and 98.4% and 55% | viability, T/C (compound 0.316 µM) 95.6% and 97.8% and 80.1% | viability, T/C (compound 1 µM) 75.1% and 80.2% and 68.1% | viability, T/C (compound 3.16 µM) 75.5% and 68% and 68.3% | viability, T/C (compound 10 µM) 61.6% and 65.6% and 59.3%
> 10 µM: IC50 (curve of compound)

CC1COCCN1c1cc(C2(S(C)(=N)=O)CC2)nc(-c2ccnc3[nH]ccc23)n1 (stereo not drawn) + CN(C)c1ccc(Nc2c3ccc(NC(=O)CCN4CCCC4)cc3nc3cc(NC(=O)CCN4CCCC4)ccc23)cc1
3.16 µM: IC50 (curve of first compound, second compound 3.16 µM)
< 0.0316 µM: IC50 (curve of first compound, second compound 10 µM)
1.96 µM: IC50 (curve of first compound, second compound 1 µM)
4.01 µM: IC50 (curve of first compound, second compound 0.316 µM)
inactive: viability, T/C (second compound 0.0316 µM, first compound 0.0316 µM) 97.8% | viability, T/C (second compound 0.0316 µM, first compound 0.1 µM) 91% | viability, T/C (second compound 0.0316 µM, first compound 0.316 µM) 89.8% | viability, T/C (second compound 0.0316 µM, first compound 1 µM) 81.3% | viability, T/C (second compound 0.0316 µM, first compound 3.16 µM) 66.7% | viability, T/C (second compound 0.0316 µM, first compound 10 µM) 67.4% | viability, T/C (second compound 0.1 µM, first compound 0.0316 µM) 95.1% | viability, T/C (second compound 0.1 µM, first compound 0.1 µM) 84.5% | viability, T/C (second compound 0.1 µM, first compound 0.316 µM) 75.2% | viability, T/C (second compound 0.1 µM, first compound 1 µM) 65.5% | viability, T/C (second compound 0.1 µM, first compound 3.16 µM) 74.6% | viability, T/C (second compound 0.1 µM, first compound 10 µM) 66.9% | viability, T/C (second compound 0.316 µM, first compound 0.0316 µM) 74.5% | viability, T/C (second compound 0.316 µM, first compound 0.1 µM) 75.7% | viability, T/C (second compound 0.316 µM, first compound 0.316 µM) 47.8% | viability, T/C (second compound 0.316 µM, first compound 1 µM) 64% | viability, T/C (second compound 0.316 µM, first compound 3.16 µM) 59% | viability, T/C (second compound 0.316 µM, first compound 10 µM) 39.8% | viability, T/C (second compound 1 µM, first compound 0.0316 µM) 65.8% | viability, T/C (second compound 1 µM, first compound 0.1 µM) 47.6% | viability, T/C (second compound 1 µM, first compound 0.316 µM) 59.5% | viability, T/C (second compound 1 µM, first compound 1 µM) 52.9% | viability, T/C (second compound 1 µM, first compound 3.16 µM) 50.1% | viability, T/C (second compound 1 µM, first compound 10 µM) 43.9% | viability, T/C (second compound 3.16 µM, first compound 0.0316 µM) 58.4% | viability, T/C (second compound 3.16 µM, first compound 0.1 µM) 61.5% | viability, T/C (second compound 3.16 µM, first compound 0.316 µM) 63.1% | viability, T/C (second compound 3.16 µM, first compound 1 µM) 46.4% | viability, T/C (second compound 3.16 µM, first compound 3.16 µM) 52.7% | viability, T/C (second compound 3.16 µM, first compound 10 µM) 55.6% | viability, T/C (second compound 10 µM, first compound 0.0316 µM) 36.8% | viability, T/C (second compound 10 µM, first compound 0.1 µM) 45.5% | viability, T/C (second compound 10 µM, first compound 0.316 µM) 33.7% | viability, T/C (second compound 10 µM, first compound 1 µM) 52.5% | viability, T/C (second compound 10 µM, first compound 3.16 µM) 37.2% | viability, T/C (second compound 10 µM, first compound 10 µM) 71.4%
> 10 µM: IC50 (curve of first compound, second compound 0.0316 µM) | IC50 (curve of first compound, second compound 0.1 µM)

COc1cccc2c1C(=O)c1c(O)c3c(c(O)c1C2=O)CC(O)(C(=O)CO)CC3OC1CC(N)C(O)C(C)O1 (stereo not drawn)
inactive: viability, T/C (compound 0.0316 µM) 90.2% and 99.5% and 87% | viability, T/C (compound 0.1 µM) 90.8% and 78.6% and 69.9% | viability, T/C (compound 0.316 µM) 84.7% and 99.6% and 86.4% | viability, T/C (compound 1 µM) 67.4% and 66.3% and 80.7% | viability, T/C (compound 3.16 µM) 49.4% and 58.4% and 58.3% | viability, T/C (compound 10 µM) 44.2% and 70.7% and 49.6%
3.04 µM and > 10 µM and 9.44 µM: IC50 (curve of compound)
